This is an account of results in US7776790B2 (Platte Chemical Co., priority 2001, dated 2010).

A short description of series [1]: pKa of the acid herbicide in the formulation, measured. Type of series: physicochemical. Particulars: 2,4-D acid in PCC-1133; glyphosate acid in PCC-1168.
The conditions of series [2]: per approximately 100 grams of an aqueous solution (one weight percent); depending on temperature and pH; cited from earlier work.

Usually pKa stands for the negative logarithm of the acid dissociation constant. High values mean a group that holds its proton tightly, low ones a group that gives up its proton readily. Take `O=C(O)CNCP(=O)(O)O` [glyphosate acid, N-(phosphonomethyl)glycine]: the pKa in series [1] was approximately 2.5. Moreover, the “solubility in water or acidic water” value in series [2] is “approximately 1 gram”. For `O=C(O)COc1ccc(Cl)cc1Cl` [2,4-D acid, 2,4-dichlorophenoxy acetic acid], the pKa in series [1] amounted to 2.87.
